Read-outs that look alike come from different tables or passages of the source.
Assays:
EAAT3 = biological target: T1, EAAT3 (Homo sapiens, UniProt P43005); test: mEGFPpH fluorescence imaging of intracellular pH in HEK293 cells co-expressing EAAT3
T1 sequence (P43005 1-524): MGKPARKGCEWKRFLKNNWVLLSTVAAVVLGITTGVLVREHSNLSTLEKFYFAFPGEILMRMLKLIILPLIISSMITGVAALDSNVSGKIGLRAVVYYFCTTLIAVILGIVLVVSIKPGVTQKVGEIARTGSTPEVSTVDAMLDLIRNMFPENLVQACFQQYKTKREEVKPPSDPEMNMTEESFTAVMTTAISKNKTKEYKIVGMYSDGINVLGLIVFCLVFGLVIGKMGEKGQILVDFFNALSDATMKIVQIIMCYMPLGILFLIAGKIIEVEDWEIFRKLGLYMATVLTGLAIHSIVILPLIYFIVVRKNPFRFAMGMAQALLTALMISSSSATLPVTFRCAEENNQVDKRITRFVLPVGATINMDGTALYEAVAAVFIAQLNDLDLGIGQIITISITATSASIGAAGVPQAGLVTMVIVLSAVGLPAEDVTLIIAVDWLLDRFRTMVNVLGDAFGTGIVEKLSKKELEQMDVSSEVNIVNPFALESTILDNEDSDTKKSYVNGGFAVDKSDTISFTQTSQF
Source text: Cells expressing mEGFPpH were imaged with a Zeiss Axiovert 135T inverted microscope with a 40X NeoFluar oil immersion objective (NA1.3). A Lambda DG4 (Sutter Instrument Co.) equipped with a xenon arc lamp was used for high-speed excitation wavelength switching. Images were collected using either a Quantix (Roper Scientific, Tucson, AZ) or an Orca ER (Hammamatsu Co.) cooled CCD. For pH imaging experiments, the fluorescence filters (Omega Optical) were: excitation 405±20 and 485±7.5; dichroic 400-480-585DLRP; emission 510±11.5. Software control and data acquisition were accomplished using Axon Imaging Workbench (INDEC Biosystems) or OpenLab acquisition software (Improvision, Perkin Elmer). Cells were incubated at room temperature with continuous perfusion using standard buffer containing (in mM): 146 NaCl, 5 KCl, 5 HEPES, 2.5 CaCl2 and 1.2 MgCl2 at pH 7.35 with additions (substrates etc.) as indicated in figure legends. Acquisition exposure times were identical for both 405 nm and 485 nm excitation wavelengths adjusted so that the 510 emission was not saturated for either excitation wavelength. Prior to perfusion with buffers containing substrates, cells were perfused in standard buffer to achieve a stable base line. Fluorescence was reported as the ratio of fluorescence at 510 nm by excitation with 485 and 405 nm wavelengths (F485/F405).

EAAT3 and ASCT1 [1] = biological target: T2, EAAT3 and ASCT1 (Homo sapiens, UniProt P43005); test: Release of preloaded [35S]-L-cysteine from Xenopus oocytes co-expressing EAAT3 and ASCT1; type: cell-based; conditions: TBOA co-incubation
T2 construct: expressed in transfected cells; host or cells: Xenopus oocytes
T2 sequence (P43005 1-524): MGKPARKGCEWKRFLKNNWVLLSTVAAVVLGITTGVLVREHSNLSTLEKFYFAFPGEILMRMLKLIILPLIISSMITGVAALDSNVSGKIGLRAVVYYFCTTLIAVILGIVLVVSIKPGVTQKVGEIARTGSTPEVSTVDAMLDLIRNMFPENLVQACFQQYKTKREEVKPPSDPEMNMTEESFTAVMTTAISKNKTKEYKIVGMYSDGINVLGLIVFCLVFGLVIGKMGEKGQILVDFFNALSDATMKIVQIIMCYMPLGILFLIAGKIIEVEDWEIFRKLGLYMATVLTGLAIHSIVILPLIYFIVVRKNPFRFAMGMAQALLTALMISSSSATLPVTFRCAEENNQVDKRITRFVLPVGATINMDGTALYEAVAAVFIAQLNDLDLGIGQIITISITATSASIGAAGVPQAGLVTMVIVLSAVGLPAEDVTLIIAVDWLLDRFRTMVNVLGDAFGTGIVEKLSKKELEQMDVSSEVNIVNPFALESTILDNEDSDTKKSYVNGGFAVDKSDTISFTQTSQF
Method: mRNA from linearized pOTV-EAAT1, pOTV-EAAT2 and pOTV-EAAT3 was generated as previously described and resuspended in RNAase-free water and used for oocytes injections.
(§1) Oocytes were washed 3 times in ND96 buffer followed by incubation for 10 min with non-radiolabeled substrates as indicated. The supernatant was removed and collected for scintillation counting, while the oocytes were lysed in 1% sodium dodecylsulfate (SDS). The oocytes lysate and supernatant were counted separately by liquid scintillation counting to determine both retained and released radioactivity respectively. Percent of released radioactivity was determined as a function of the released/(retained + released).

EAAT3 and ASCT1 [2] = biological target: T2, EAAT3 and ASCT1; test: Release of preloaded [3H]-L-glutamate from Xenopus oocytes co-expressing EAAT3 and ASCT1; type: cell-based
Method: mRNA from linearized pOTV-EAAT1, pOTV-EAAT2 and pOTV-EAAT3 was generated as previously described and resuspended in RNAase-free water and used for oocytes injections. Xenopus oocytes where injected with 50 nl of mRNA and incubated at 18°C in 96 mM NaCl, 2 mM KCl, 1.8 mM CaCl2, 1.0 mM MgCl2, 5 mM HEPES, pH 7.4 (ND96) supplemented with 2.5 mM Sodium Pyruvate and Gentamicyn for 2 to 3 days prior to using in electrophysiological recordings and radio-labeled transport experiments.
as §1

EAATs = conditions: very low affinity; cited from earlier work

SMILES: N[C@H](CC(=O)O)C(=O)O [D-aspartate]
- mEGFPpH fluorescence change (EAAT3; 100 µM perfusion, EAAT3 HEK293 cells): fluorescence decrease similar to that observed for 100 µM glutamate

SMILES: Cl.N [NH4Cl]
- average intracellular pH (pHi) (HEK293 cells; after NH4Cl washout): ~6.5
- average intracellular pH (pHi) (HEK293 cells; during 50 mM NH4Cl perfusion, initial pHi ~7.4, n = 4): ~8.5

SMILES: N[C@H](C(=O)O)[C@H](OCc1ccccc1)C(=O)O [TBOA]
- effect on [35S]-L-cysteine release in presence of 100 µM glutamate (EAAT3 and ASCT1 [1]): not significantly inhibited
- effect on [35S]-cysteine release induced by 300 µM cysteine (EAAT3 and ASCT1 [1]): not inhibited
- effect on [3H]-L-glutamate release induced by K+ containing buffer (EAAT3 and ASCT1 [2]; TBOA co-application, data not shown): blocking this release
- effect on [3H]-L-glutamate release induced by 100 µM L-glutamate (EAAT3 and ASCT1 [2]; TBOA co-incubation): blocked
- effect on [3H]-L-glutamate release induced by cysteine (EAAT3 and ASCT1 [2]; TBOA co-incubation): blocked
- effect on cysteine-induced mEGFPpH fluorescence increase (EAAT3; 100 µM TBOA co-applied with 1 mM cysteine): blocked
- effect on glutamate-induced mEGFPpH fluorescence changes (EAAT3; co-application with glutamate, data not shown): blocked

SMILES: C[C@H](N)C(=O)O [alanine]
- affinity for the transporters (EAATs): > 1 mM

Reference: publication PMC4183567, “Cysteine Transport through Excitatory Amino Acid Transporter 3 (EAAT3)” (PLoS ONE, 2014)
